The source of these data is paper PMC12368660, “Synergistic Ciprofloxacin-RWn Peptide Therapy Overcomes Drug Resistance in Gram-Negative Bacteria” (ACS Omega, 2025).

No end group written: not given here. Where only a bound is given, the exact number is not on record here.

For data set [1] the following is noted: cited from earlier work; for Solubility in 1x DPBS, estimated maximum concentration tested or achieved: pH 7.1. The procedure:
Ciprofloxacin (CIP; Sigma-Aldrich, St. Louis, MO) and synthesized peptides were dissolved to prepare stock solutions. […] Solubility Test Results for Synthetic RWn Peptides. Peptide Ultrapure Waterᵃ 1x DPBS (pH 7.1 ± DMSOᵃ Formic Acid ID 0.1)ᵃ (HCOOH)ᵃ RW4 Dissolved (≤10 Dissolved (≤5 mg/mL) Dissolved (≤15 mg/mL) N/A mg/mL) RW4P Dissolved (≤2 Dissolved (≤2 mg/mL) Dissolved (≤10 mg/mL) N/A mg/mL) RW6 Dissolved (≤10 Undissolved Dissolved (≥10 mg/mL) N/A mg/mL) RW6P Dissolved (≤5 Undissolved Dissolved (≥10 mg/mL) N/A mg/mL) RW6-2P Undissolved Undissolved Dissolved (≤2 mg/mL) N/A RW8 Dissolved (≤5 Undissolved Dissolved (≤15 mg/mL) N/A mg/mL) RW8P Undissolved Undissolved Undissolved Dissolved (≤5 mg ...

Data set [2] concerns human embryonic kidney (HEK293) cells (ATCC CRL-1573). The data set is classed as cell-based. The note with it: 24 h. On the procedure:
HEK293 cells were cultured in Dulbecco's modified Eagle's medium (DMEM; Gibco, Thermo Fisher Scientific, Waltham, MA) supplemented with 10% (v/v) fetal bovine serum (FBS; Gibco) and 1% penicillin/streptomycin (Gibco) at 37 °C in a humidified atmosphere containing 5% CO2. Cells were seeded in 384-well plates at a density of 5 × 10^3 cells/well and incubated for 24 h. Compounds were then added to the wells at various concentrations. After a further 24 h incubation, resazurin (Sigma-Aldrich) was added to each well to a final concentration of 44 μM. After 4 h of incubation, fluorescence was measured at excitation/emission wavelengths of 560/590 nm using a Tecan […] microplate reader. Cell viability was expressed as a percentage relative to that of untreated control cells. […] All assays were conducted in duplicate (n = 2) across separate assay plates. […]

Data set [3] concerns human umbilical vein endothelial (HUVEC) cells.
In data set [4] the test system is human embryonic kidney (HEK293) cells (ATCC CRL-1573). Further details: method as in earlier work. The note with it: cited from earlier work.
Data set [5] deals with human umbilical vein endothelial (HUVEC) cells. Further details: method as in earlier work. To be noted: cited from earlier work.

Take RWRWRWRWPRWRWRWRW-NH2 [RW8P]: the “Solubility in formic acid (HCOOH), estimated maximum concentration tested or achieved” value in data set [1] was at most 5000 µg/mL.

With RWRWRWPRWRWRW-NH2 [RW6P], in data set [1], the “Solubility in DMSO, estimated maximum concentration tested or achieved” value (“Solubility in DMSO” below) is at least 10000 µg/mL and the “Solubility in ultrapure water, estimated maximum concentration tested or achieved” value (shortened to “Solubility in ultrapure water”) was at most 5000 µg/mL.

On to “RWRWRWRWRWRWRWRW [RW8, arginine-tryptophan-rich antimicrobial peptide, 16 AA]”, for which, in data set [1], the “Solubility in DMSO” value is at most 15000 µg/mL and the “Solubility in ultrapure water” value was at most 5000 µg/mL.

`N=C(N)NCCC[C@H](NC(=O)[C@H](Cc1c[nH]c2ccccc12)NC(=O)[C@H](CCCNC(=N)N)NC(=O)[C@H](Cc1c[nH]c2ccccc12)NC(=O)[C@H](CCCNC(=N)N)NC(=O)[C@H](Cc1c[nH]c2ccccc12)NC(=O)[C@H](CCCNC(=N)N)NC(=O)[C@H](Cc1c[nH]c2ccccc12)NC(=O)[C@H](CCCNC(=N)N)NC(=O)[C@H](Cc1c[nH]c2ccccc12)NC(=O)[C@@H](N)CCCNC(=N)N)C(=O)N[C@@H](Cc1c[nH]c2ccccc12)C(=O)O` [RW6]: the “HEK293 (CC50)” value in data set [2] is over 32 µg/mL. Also, the “HUVEC (CC50)” value in data set [3] is over 32 µg/mL. In data set [1], the “Solubility in DMSO” value was at least 10000 µg/mL and the “Solubility in ultrapure water” value is at most 10000 µg/mL.

For RWRWPRWRWPRWRW-NH2 [RW6–2P], the “Solubility in DMSO” value in data set [1] is at most 2000 µg/mL.

In the case of RWRWPRWRW-NH2 [RW4P], in data set [1], the “Solubility in DMSO” value is at most 10000 µg/mL; the “Solubility in ultrapure water” value is at most 2000 µg/mL; the “Solubility in 1x DPBS, estimated maximum concentration tested or achieved” value is at most 2000 µg/mL.

As for RWRWRWRW [RW4], in data set [2], the “HEK293 (CC50)” value is over 32 µg/mL. The “HUVEC (CC50)” value in data set [3] is over 32 µg/mL. Besides, the “concentration without detectable cytotoxicity, HEK293” value in data set [4] is over 32000 ng/mL. In data set [5], the “concentration without detectable cytotoxicity, HUVEC” value is over 32000 ng/mL. In addition, in data set [1], the “Solubility in DMSO” value was at most 15000 µg/mL; the “Solubility in ultrapure water” value is at most 10000 µg/mL; the “Solubility in 1x DPBS, estimated maximum concentration tested or achieved” value is at most 5000 µg/mL.
